Laboratory results as given in article PMC8519033 (Pediatric Obesity, 2021).

Key:
[1] = Population pharmacokinetic analysis of liraglutide (one-compartment model, NONMEM FOCE-I; plasma ELISA); type: in vivo, human; settings: for Absorption rate constant KA / Apparent volume of distribution V/F: parameter fixed
Experimental: As the focus of the analysis was a comparison of different age populations, age was prespecified to be included initially as a categorical variable.
In trial 4180, Tanner staging (stages 2‐5) of adolescents was assessed by site staff trained in pubertal assessments. For females, assessments of breast and pubic hair development were made. For males, assessments of testicular volume (by orchidometer), penis development and pubic hair development were made. Prepubertal patients were not permitted in the trial.
The structural model was parameterized in terms of the following parameters: • ka (absorption rate constant) • CL/F (apparent clearance) • V/F (apparent volume of distribution)
The first‐order conditional estimation with interaction (FOCE‐I) method was used for the population pharmacokinetic analysis, implemented in the non‐linear mixed effects modelling (NONMEM) software.
An analysis of the influence of covariates on exposure was carried out including all tested covariates in one step, using a confirmatory approach,[32] and disregarding any interactions between age group and sex. Model development involved estimation of a base model without covariates and a full model including all predefined covariates. If any covariates without statistically significant effect could be excluded, the reduced model would be considered the final population pharmacokinetic model. The covariates were prespecified and based on earlier findings in phase 3 trials with adults as well as prior knowledge from smaller trials in children and adolescents.
Specific steady‐state exposures for individual participants were based on the full model, including all covariates, and derived from the subject‐specific post‐hoc CL/F estimates, the maintenance dose and the dose interval (24 hours): (6) Cavg=Dose/CL/F*24hours
The CIs for full model parameters were estimated using bootstrapping. For each investigated covariate, differences were considered relevant if the 90% CI of the estimated mean of the relative exposure fell outside the standard bioequivalence limits (0.80‐1.25).
Between‐subject variability was included for CL/F and V/F, assuming log‐normal distributions […]. Furthermore, CL/F and V/F were estimated using a full variance‐covariance matrix. No between‐subject variability was included for ka. Within‐subject variability (residual) was described by a proportional error model. Standard graphical quality analyses, including goodness‐of‐fit plots (Figure S1), were made during qualification of the pharmacokinetic model.

[2] = system: adolescents in trial 4180; set-up: species or system human; settings: in vivo
Experimental: The analyses were conducted using response data at week 20 (phase 2 trial 1807), week 50 (phase 3a trial 1922) or week 56 (phase 3a trials 4180 and 1839) to align with the original analysis in adults. The appropriateness of using different trial lengths for the historical adult trials was evaluated by graphically exploring the weight loss longitudinally. This was deemed appropriate as the maximal effect on weight reduction was reached after 20 weeks of treatment and remained stable thereafter for the trials of longer duration. […] The two age groups differed in the placebo group response, with lower mean responses in adolescents; this difference was consistent across the exposure range as well. […] However, the effect of age group on the maximal effect in the model (Emax) was not significant in these analyses. […] Approximately 64% of the adolescents in the exposure‐response analysis grew more than 0.5 cm during the trial. Of these, some received liraglutide and some received placebo.

[3] = system: pubertal adolescents with obesity; settings: 56-week trial, liraglutide in addition to lifestyle therapy; 95% CI -0.37, -0.08; P = 0.002; cited from earlier work
[4] = base pharmacokinetic model without covariates

For `CCCCCCCCCCCCCCCC(=O)N[C@@H](CCC(=O)NCCCC[C@H](NC(=O)[C@H](C)NC(=O)[C@H](C)NC(=O)[C@H](CCC(N)=O)NC(=O)CNC(=O)[C@H](CCC(=O)O)NC(=O)[C@H](CC(C)C)NC(=O)[C@H](Cc1ccc(O)cc1)NC(=O)[C@H](CO)NC(=O)[C@H](CO)NC(=O)[C@@H](NC(=O)[C@H](CC(=O)O)NC(=O)[C@H](CO)NC(=O)[C@@H](NC(=O)[C@H](Cc1ccccc1)NC(=O)[C@@H](NC(=O)CNC(=O)[C@H](CCC(=O)O)NC(=O)[C@H](C)NC(=O)[C@@H](N)Cc1cnc[nH]1)[C@@H](C)O)[C@@H](C)O)C(C)C)C(=O)N[C@@H](CCC(=O)O)C(=O)N[C@@H](Cc1ccccc1)C(=O)N[C@H](C(=O)N[C@@H](C)C(=O)N[C@@H](Cc1c[nH]c2ccccc12)C(=O)N[C@@H](CC(C)C)C(=O)N[C@H](C(=O)N[C@@H](CCCNC(=N)N)C(=O)NCC(=O)N[C@@H](CCCNC(=N)N)C(=O)NCC(=O)O)C(C)C)[C@@H](C)CC)C(=O)O` [liraglutide], the “Absorption rate constant KA” value [1, 4] was 0.0804 h⁻¹, the “Apparent volume of distribution V/F” value [1, 4] was 13.1 L and the “Absorption rate constant KA” value ([1]; final (full covariate) pharmacokinetic model, trials 4180, 3967, 3630, 4181, children, adolescents and adults with obesity, N = 176) was 0.0813 h⁻¹. The “Body weight exponent on V/F (V-BW)” value ([1]; final pharmacokinetic model) was 0.587, the “Apparent volume of distribution V/F” value ([1]; final pharmacokinetic model, reference subject adult female, 100 kg) was 13.8 L and the “Average growth (height) during the trial” value [2] was 1.4 cm. The “BMI standard-deviation score (SDS), estimated treatment difference compared with placebo” value [3] was −0.22.
